Measurements taken from publication PMC8956313, “Biological investigation of N-methyl thiosemicarbazones as antimicrobial agents and bacterial carbonic anhydrases inhibitors” (Journal of Enzyme Inhibition and Medicinal Chemistry, 2022).

Assays:
Assay in all cases: stopped-flow CO2 hydrase assay
Type in all cases: biochemical
EcoγCA = biological target: T1, EcoγCA (Escherichia coli, UniProt P0A9W9)
T1 construct: gene yrdA; recombinant, expressed in E. coli (DE3), purified
T1 sequence (P0A9W9 1-184): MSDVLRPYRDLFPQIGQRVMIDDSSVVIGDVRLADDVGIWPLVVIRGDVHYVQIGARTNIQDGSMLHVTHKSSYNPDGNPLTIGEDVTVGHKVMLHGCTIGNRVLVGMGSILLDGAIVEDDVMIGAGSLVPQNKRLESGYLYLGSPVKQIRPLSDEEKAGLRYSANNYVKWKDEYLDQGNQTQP

hCA II = biological target: T2, hCA II (Homo sapiens, UniProt P00918)
T2 construct: gene CA2; recombinant, obtained in house

psCA3-β = biological target: T3, psCA3-β (Pseudomonas aeruginosa, UniProt Q9HVB9)
T3 construct: gene PA4676; recombinant, expressed in E. coli (DE3), purified
T3 sequence (Q9HVB9 1-215): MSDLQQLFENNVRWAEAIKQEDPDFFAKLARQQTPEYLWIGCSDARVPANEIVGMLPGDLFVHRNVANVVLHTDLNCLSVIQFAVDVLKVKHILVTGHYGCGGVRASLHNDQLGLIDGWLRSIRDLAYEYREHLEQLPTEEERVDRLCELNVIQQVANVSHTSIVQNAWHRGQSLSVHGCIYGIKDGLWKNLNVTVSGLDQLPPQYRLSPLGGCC

EcoβCA = biological target: T4, EcoβCA (Escherichia coli, UniProt P61517)
T4 construct: gene can; recombinant, expressed in E. coli (DE3), purified
T4 sequence (P61517 whole entry): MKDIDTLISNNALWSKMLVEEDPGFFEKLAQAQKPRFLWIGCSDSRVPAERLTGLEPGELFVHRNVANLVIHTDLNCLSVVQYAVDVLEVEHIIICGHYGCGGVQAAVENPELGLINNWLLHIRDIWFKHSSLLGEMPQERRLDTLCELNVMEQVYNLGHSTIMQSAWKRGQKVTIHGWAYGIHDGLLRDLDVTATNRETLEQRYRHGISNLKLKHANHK

hCA I = biological target: T5, hCA I (Homo sapiens, UniProt P00915)
T5 construct: gene CA1; recombinant, obtained in house
T5 sequence (P00915 2-261): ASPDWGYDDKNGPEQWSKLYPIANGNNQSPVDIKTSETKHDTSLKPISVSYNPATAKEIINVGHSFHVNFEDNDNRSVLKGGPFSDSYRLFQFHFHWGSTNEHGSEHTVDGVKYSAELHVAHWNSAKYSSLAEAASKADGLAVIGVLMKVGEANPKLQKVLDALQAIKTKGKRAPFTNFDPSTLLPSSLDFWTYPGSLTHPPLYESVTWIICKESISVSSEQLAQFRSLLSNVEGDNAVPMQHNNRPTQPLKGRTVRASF

HpαCA = biological target: T6, HpαCA (Helicobacter pylori, UniProt O25798); conditions: HEPES pH 7.40, 20 mM Na2SO4, 15 min preincubation, room temperature
T6 construct: gene HP_1186; recombinant, expressed in E. coli (DE3), purified
T6 sequence (O25798 19-202): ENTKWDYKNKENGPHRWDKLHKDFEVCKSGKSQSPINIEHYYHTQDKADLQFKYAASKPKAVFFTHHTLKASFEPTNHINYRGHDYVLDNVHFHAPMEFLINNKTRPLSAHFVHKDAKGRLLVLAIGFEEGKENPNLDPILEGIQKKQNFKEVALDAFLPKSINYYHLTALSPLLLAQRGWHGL

HpβCA = biological target: T7, HpβCA (Helicobacter pylori, UniProt O24855)
T7 construct: gene cynT; recombinant, expressed in E. coli (DE3), purified
T7 sequence (O24855 1-221): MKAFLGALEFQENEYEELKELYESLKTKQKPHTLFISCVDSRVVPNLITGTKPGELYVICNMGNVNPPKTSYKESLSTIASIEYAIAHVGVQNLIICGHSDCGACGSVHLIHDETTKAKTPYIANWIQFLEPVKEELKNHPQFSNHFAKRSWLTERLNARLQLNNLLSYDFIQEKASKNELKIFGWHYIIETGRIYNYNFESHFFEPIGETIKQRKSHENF

Ki (hCA I)	Compound	Ki (EcoγCA)	Ki (hCA II)	Ki (psCA3-β)	also measured
	CNC(=S)NN=C(C)c1ccc(OC)cc1 [compound 1, TSC 1]	86.2 µM	> 800 µM	92.1 µM	
	CNC(=S)NN=C(C)c1ccc(S(C)(=O)=O)cc1 [compound 2, TSC 2]	80 µM	> 800 µM	93.4 µM	
	CNC(=S)NN=C(C)c1ccc(N2CCOCC2)cc1 [compound 3, TSC 3]		> 800 µM		Ki (EcoβCA): 91.5 µM
> 1000 µM	CNC(=S)NN=C(C)c1ccc(-n2ccnc2)cc1 [compound 4, TSC 4]				
	CNC(=S)NN=C(C)c1ccc(-c2cc3ccccc3[nH]2)cc1 [compound 5, TSC 5]				Ki (HpαCA): 95.2 µM; Ki (HpβCA): 348 µM
> 1000 µM	CNC(=S)NN=C(C)c1ccc2c(c1)OCO2 [compound 6, TSC 6]				
	CNC(=S)NN=C(C)c1ccc(Br)s1 [compound 9, TSC 9]	83.2 µM	> 800 µM	86.7 µM	

Compound	Ki (hCA I)	Ki (EcoγCA)	Ki (hCA II)	Ki (psCA3-β)	also measured
CNC(=S)NN=C(C)c1ccc2c(c1)OCCO2 [compound 7, TSC 7]	> 1000 µM				Ki (EcoβCA): 96.5 µM
